According to US11884627B2, “Compounds and compositions for treating conditions associated with LPA receptor activity” (Lhotse Bio, Inc., priority 2022, dated 2024):
pIC50: −log10 of the molar value. Like-named read-outs stand apart in the source and are kept apart here.

Molecular target: T1, human LPA1 (Homo sapiens, UniProt Q92633)
T1 construct: expressed in transfected cells; host or cells: CHO-K1
Test: In vitro LPA1 calcium flux antagonist assay - Bioduro protocol
Assay type: cell-based
Settings: CHO-K1 cells overexpressing human LPA1 and G15a, LPA challenge at EC80
Protocol: In Vitro LPA1 Calcium Flux Antagonist Assay—Bioduro Protocol
CHO-K1 cells overexpressing human LPA1 and G15a were seeded at a total volume of 20 μL (15000 cells/well) into Matrigel pre-coated 384-well plates (corning −3764) and incubated at 37° C. After overnight incubation, the cells were serum starved for 4 h. Assays were performed in dye loading buffer containing 1× Fluo-8 AM (AAT Bioquest, 21080) and 2.5 mM probenecid (Thermo Fisher, 36400) in HBSS/20 mM Hepes. After cell starvation, the medium was replaced with 20 μL of dye loading buffer and incubated at 37° C., for 30 min. Then 5 μL of 5× compound titrated in dye loading buffer was added to the cells and incubated for 30 min followed by LPA challenge at EC80. Calcium mobilization was measured on a FLIPR Tetra (MSD). For LPA EC80 determination, starved cells were incubated with 20 μL of dye loading buffer for 1 h, then 5 μL of 5×LPA titrated in dye loading buffer was added to the cells. Calcium signals induced by LPA was monitors on a FLIPR.
Percentage inhibition is calculated using the following formula: % Inhibition=100%×(1−(mean RFU of test sample−mean RFU of DMSO)/(mean RFU of LPA control−mean RFU of DMSO)).
Table B3 and Table B4 show the biological activity of compounds in in vitro LPA1 Calcium flux antagonist assay—Bioduro protocol.

[1] = calcium mobilization on FLIPR Tetra, read-out: IC50
[2] = Table B3, read-out: Activity (IC50 class)

T1 sequence (Q92633 whole entry): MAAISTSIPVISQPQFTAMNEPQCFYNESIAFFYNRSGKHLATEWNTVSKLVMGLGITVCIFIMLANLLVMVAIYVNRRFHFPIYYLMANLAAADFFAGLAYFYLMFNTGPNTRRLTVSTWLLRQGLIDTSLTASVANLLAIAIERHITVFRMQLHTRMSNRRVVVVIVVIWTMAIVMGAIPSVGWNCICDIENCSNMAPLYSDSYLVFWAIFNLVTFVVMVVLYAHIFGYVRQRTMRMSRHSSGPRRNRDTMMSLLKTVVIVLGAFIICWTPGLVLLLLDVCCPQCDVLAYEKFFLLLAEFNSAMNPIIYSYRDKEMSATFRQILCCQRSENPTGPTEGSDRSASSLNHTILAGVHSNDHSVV

pIC50 [1]	pIC50 [2]	Compound
6.41	6.00 to 7.00	COc1cc(-c2ccc(NC3(C(=O)O)CCOCC3)cc2COC2CCCC2)cc(OC)n1 [Compound 152, 4-((3-((cyclopentyloxy)methyl)-4-(2,6-dimethoxypyridin-4-yl)phenyl)amino)tetrahydro-2H-pyran-4-carboxylic acid]
6.65	6.00 to 7.00	COC(=O)N1CCC(Nc2cc(C)c(-c3cc(OC)cc(OC)c3)c(COC3CCCC3)c2)(C(=O)O)CC1 [Compound 154]
< 5.00	< 6.00	Cc1cccc(-c2ccc(NC3(C(=O)O)CCOCC3)cc2COC2CC2)c1F [Compound 328]
8.38	> 7.00	CCOc1cccc(-c2ccc(NC3(C(=O)O)CCOCC3)cc2COC2CC2)c1C(F)F [Compound 279, 4-((2-(cyclopropoxymethyl)-2′-(difluoromethyl)-3′-ethoxy-[1,1′-biphenyl]-4-yl)amino)tetrahydro-2H-pyran-4-carboxylic acid]
7.95	> 7.00	COc1cc(-c2ccc(NC3(C(=O)O)CCOCC3)cc2COC2(C)CCCC2)c(C)c(OC)c1C [Compound 212]
7.68	> 7.00	COc1cc(-c2c(F)cc(NC3(C(=O)O)CCOCC3)cc2COC2CCCC2)cc(OC)c1C [Compound 147, 4-((2-((cyclopentyloxy)methyl)-6-fluoro-3′,5′-dimethoxy-4′-methyl-[1,1′-biphenyl]-4-yl)amino)tetrahydro-2H-pyran-4-carboxylic acid]
6.04	6.00 to 7.00	COc1cc(-c2c(CC#N)cc(NC3(C(=O)O)CCOCC3)cc2COC2CCCC2)cc(OC)c1C [Compound 233]
7.61	> 7.00	CCOc1cc(OC)cc(-c2ccc(OC3(C(=O)O)CCOCC3)cc2COC2CCCC2)c1F [Compound 246]
5.36	< 6.00	CCOCc1cc(NC2(C(=O)O)CCOCC2)ccc1-c1cc(OC)c(C)c(OC)c1F [Compound 350]
6.01	6.00 to 7.00	COc1cc(-c2ccc(N(C)C3(C(=O)O)CCOCC3)cc2COC2CCCC2)c(F)c(OC)c1C [Compound 239]
5.67	< 6.00	COc1cc(-c2ccc(NCC(C)C(=O)O)cc2COC2Cc3ccccc3C2)cc(OC)c1C (stereo not shown) [Compound 116]
7.60	> 7.00	COc1cc(-c2ccc(NC3(C(=O)O)CCOCC3)cc2COC2CCCCC2)c(F)c(OC)c1C [Compound 276]
7.63	> 7.00	COc1cc(-c2ccc(NC3(C(=O)O)CCOCC3)cc2COC2CCCC2)c(F)c(C2CC2)c1 [Compound 240]
9.07	> 7.00	CCOc1cccc(-c2ccc(NC3(C(=O)O)CCC(F)(F)CC3)cc2COC2CC2)c1C [Compound 383]
7.58	> 7.00	COc1cc(-c2ccc(NC3(C(=O)O)CCOCC3)cc2COC2CCCC2)cc(OC2CC2)c1C [Compound 340]
5.28	< 6.00	COc1cc(-c2ccc(C3(C(=O)O)CCOCC3)cc2COC2CCCC2)cc(OC)c1C [Compound 234]
5.46	< 6.00	COc1cc(-c2ccc(NCCC(=O)O)cc2COCCc2ccccc2)cc(OC)c1C [Compound 106]
7.16	> 7.00	COc1cc(-c2ccc(NC3(C(=O)O)CCC(F)(F)CC3)cc2COC2CC2)cc(OC)c1C [Compound 348]
7.24	> 7.00	COc1cc(-c2ccc(NC3(C(=O)O)CC(F)(F)C3)cc2COC2Cc3ccccc3C2)cc(OC)c1C [Compound 120]
8.56	> 7.00	CCOc1cccc(-c2ccc(NC3(C(=O)O)CCOCC3)cc2COC2CCCC2)c1C(F)F [Compound 244]
7.50	> 7.00	COc1cc(-c2ccc(NC3(C(=O)O)CCOCC3)cc2COC2CCCC2)c2c(c1C)OCC2 [Compound 193, 4-((3-((cyclopentyloxy)methyl)-4-(6-methoxy-7-methyl-2,3-dihydrobenzofuran-4-yl)phenyl)amino)tetrahydro-2H-pyran-4-carboxylic acid]
6.73	6.00 to 7.00	COc1cc(-c2ccc(NC3(C(=O)O)CCCC3)cc2COC2Cc3ccccc3C2)cc(OC)c1C [Compound 112]
8.19	> 7.00	CCCCOCc1cc(NC2(C(=O)O)CCOCC2)ccc1-c1ccc(C)c(OCC)c1C [Compound 399]
6.79	6.00 to 7.00	COc1cc(OC)cc(-c2c(C)cc(NC3(C(=O)O)CCOCC3)cc2COC2CCCC2)c1 [Compound 156]
7.09	> 7.00	COc1cccc(-c2ccc(NC3(C(=O)O)CCOCC3)cc2COC2CCCC2)c1C [Compound 172]

pIC50 [1]	pIC50 [2]	Compound
7.24	> 7.00	Cc1c(OC2CC2)cccc1-c1ccc(OC2(C(=O)O)CCOCC2)cc1COC1CC1 [Compound 372]
7.25	> 7.00	COC(=O)NC1CCC(Nc2ccc(-c3cc(OC)c(C)c(OC)c3)c(COC3CCCC3)c2)(C(=O)O)CC1 (stereo not shown) [Compound 208]
7.02	> 7.00	COc1cc(-c2ccc(C3(C(=O)O)CC3)cc2COC2Cc3ccccc3C2)cc(OC)c1C [Compound 118, 1-{2-[(2,3-dihydro-1H-inden-2-yloxy)methyl]-3′,5′-dimethoxy-4′-methyl-[1,1′-biphenyl]-4-yl}cyclopropane-1-carboxylic acid]
6.80	6.00 to 7.00	COc1cc(-c2ccc(NC3(C(=O)O)CCOCC3)cc2COC2COc3ccccc32)c(F)c(OC)c1C (single isomer, unassigned) [Compound 224]
6.78	6.00 to 7.00	COc1cc(OC)c(F)c(-c2ccc(OC3(C(=O)O)CCOCC3)cc2COC2CCCC2)c1 [Compound 222]
7.02	> 7.00	CCOc1cncc(-c2ccc(NC3(C(=O)O)CCOCC3)cc2COC2CC2)c1C [Compound 407]
6.72	6.00 to 7.00	COc1cc(-c2ccc(NC3(C(=O)O)CC(O)C3)cc2COC2Cc3ccccc3C2)cc(OC)c1C (stereo not shown) [Compound 131]
6.45	6.00 to 7.00	COc1cc(-c2ccc(NC3(C(=O)O)CCC3)cc2COC2CC2)c(F)c(OC)c1C [Compound 362]
7.45	> 7.00	CCOc1cncc(-c2ccc(NC3(C(=O)O)CCCC3)cc2COC2CC2)c1C [Compound 417]
7.23	> 7.00	COC(=O)N1CC(Nc2ccc(-c3cc(OC)c(C)c(OC)c3)c(COC3CCCC3)c2)(C(=O)O)C1 [Compound 144]
7.90	> 7.00	O=C(O)C1(Nc2ccc(-c3cccc(OC4CC4)c3C(F)F)c(COC3CCCC3)c2)CC1 [Compound 301]
6.95	6.00 to 7.00	COc1cc(-c2ccc(NC3(C(=O)O)CC3)cc2COC2Cc3ccccc3C2)c(C)c(OC)c1C(C)=O [Compound 122]
6.83	6.00 to 7.00	COCc1cccc(-c2ccc(NC3(C(=O)O)CCOCC3)cc2COC2CC2)c1C(F)F [Compound 311]
9.18	> 7.00	CCCCOCc1cc(NC2(C(=O)O)CCOCC2)ccc1-c1cc(OC)cc(OCC)c1F [Compound 390]
7.63	> 7.00	COc1cc(-c2c(C)cc(NC3(C(=O)O)CCOCC3)cc2CCC2CCOC2)cc(OC)c1C (stereo not shown) [Compound 308]
8.01	> 7.00	CCCc1cccc(-c2ccc(NC3(C(=O)O)CCOCC3)cc2COC2CCCC2)c1F [Compound 286]
7.91	> 7.00	COc1cc(OC)c(Cl)c(-c2ccc(NC3(C(=O)O)CCOCC3)cc2COC2CC2)c1 [Compound 303]
6.63	6.00 to 7.00	COc1cc2c(c(-c3ccc(NC4(C(=O)O)CCOCC4)cc3COC3CCCC3)c1)CCO2 [Compound 198]
7.07	6.00 to 7.00	COc1cc(OC)c(C(F)F)c(-c2ccc(NC3(C(=O)O)CCOCC3)cc2COC2CC2)c1 [Compound 302]
6.82	6.00 to 7.00	COc1cc(-c2ccc(NC3(C(=O)O)CCC3)cc2COC2Cc3ccccc3C2)cc(OC)c1C [Compound 110, 1-((2-(((2,3-dihydro-1H-inden-2-yl)oxy)methyl)-3′,5′-dimethoxy-4′-methyl-[1,1′-biphenyl]-4-yl)amino)cyclobutane-1-carboxylic acid]
8.14	> 7.00	COc1cc(OC2CC2)c(F)c(-c2ccc(NC3(C(=O)O)CCC(F)(F)CC3)cc2COC2CC2)c1 [Compound 346]
< 5.00	< 6.00	COc1cc(-c2ccc(NC3(C(=O)O)CCNCC3)cc2COC2CCCC2)cc(OC)c1C [Compound 142]
6.76	6.00 to 7.00	COc1cc(-c2ccc(OC3(C(=O)O)CCOCC3)cc2CCC2CCOC2)c(F)c(OC)c1C (stereo not shown) [Compound 260]
6.45	6.00 to 7.00	COc1cc(-c2ccc(NC3(C(=O)O)CCN(C(C)=O)CC3)cc2COC2CCCC2)cc(OC)c1C [Compound 139]
8.25	> 7.00	CCCCOCc1cc(NC2(C(=O)O)CCOCC2)ccc1-c1cc(OC)c(C)c(OC)c1F [Compound 335]
